Where two headings read alike, the source gives them in different places.
How the values were obtained:
[1] = tested on: pigment epithelium of the rat's eye; settings: higher compound dose given for three months; cited from earlier work
[2] = biological target: Beta Secretase enzyme (BACE) (Homo sapiens, UniProt P56817); test: In vitro enzymatic BACE FRET assay; format: biochemical; settings: read-out: BACE1 FRET assay IC50
In short: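 Enzyme (0.2 nM) pre-incubated 1 h with serially diluted inhibitors in 0.05 M acetate pH 4.2, 10% DMSO, 100 uM genapol. Reaction started with 50 nM fluorophore/quencher peptide FRET substrate, run 1 h, stopped with Tris to neutral pH. Fluorescence read at excitation 488 nm, […].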

[3] = tested on: Aβ 40 in conditioned medium of cells stably expressing Amyloid Precursor Protein (APP); test: In vitro BACE cell-based assay (Aβ 40 sandwich ELISA); settings: Homo sapiens, HEK293
In short: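 APP-expressing cells, 24 h pre-culture in DMEM/10% FBS, treated 24 h with 10-point compound dilutions from 100 or 10 μM top, 0.1% DMSO final. Secreted Aβ40 quantified by sandwich ELISA (pAb40 capture, biotinylated 6E10 detection, europium TRF); IC50 from percent inhibition versus concentration.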

[4] = biological target: Cathepsin D (Cat D) (Homo sapiens, UniProt P07339); test: In vitro enzymatic Cathepsin D (Cat D) FRET assay; format: biochemical
In short: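 Recombinant CHO-expressed enzyme (9 nM) pre-incubated 1 h with serially diluted inhibitor in 0.05 M citrate pH 3.5, 10% DMSO final, 5 mM CHAPS. Reaction started with 20 nM FRET peptide substrate, run 1 h, stopped with Tris to neutral pH; fluorescence read at ex 500/em 580 nm.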

[5] = tested on: Abeta 40; test: In vivo inhibition of beta-secretase: Abeta 40 reduction in CSF and brain of the rat; settings: 10 mpk (unless otherwise noted), after 4 hrs
Text: In Vivo Inhibition of Beta-Secretase
Several animal models, including mouse, rat, dog, and monkey, may be used to screen for inhibition of beta-secretase activity in vivo following administration of a test compound sample. Animals used in this invention can be wild type, transgenic, or gene knockout animals. For example, the Tg2576 mouse model, prepared and conducted as described in Hsiao et al., 1996, Science 274, 99-102, and other non-transgenic or gene knockout animals are useful to analyze in vivo inhibition of Amyloid beta peptide (Abeta) production in the presence of inhibitory test compounds. Generally, 2 to 18 month old Tg2576 mice, gene knockout mice or non-transgenic animals are administered test compounds formulated in vehicles, such as cyclodextran, phosphate buffers, hydroxypropyl methylcellulose or other suitable vehicles. One to twenty-four hours following the administration of compound, animals are sacrificed, and brains as well as cerebrospinal fluid (CSF) and plasma are removed for analysis of A-beta levels and drug or test compound concentrations (Dovey et al., 2001, Journal of Neurochemistry, 76, 173-181) Beginning at time 0, animals are administered by oral gavage, or other means of delivery such as intravenous injection, an inhibitory test compound of up to 100 mg/kg in a standard, conventional formulation, such as 2% hydroxypropyl methylcellulose, 1% Tween80. A separate group of animals receive 2% hydroxypropyl methylcellulose, 1% Tween80 alone, containing no test compound, and serve as a vehicle-control group. At the end of the test period, animals are sacrificed and brain tissues, plasma or cerebrospinal fluid are collected. Brains are either homogenized in 10 volumes (w/v) of 0.2% diethylamine (DEA) in 50 mM NaCl (Best et al., 2005, Journal of Pharmacology and Experimental Therapeutics, 313, 902-908), or in 10 volumes of 0.5% TritonX-100 in Tris-buffered saline (pH at about 7.6). Homogenates are centrifuged at 355,000 g, 4° C. for 30 minutes. CSF or brain supernatants are then analyzed for the presence of A-beta peptide by specific sandwich ELISA assays based on ECL (Electrochemiluminescence) technology. For example, rat Abeta40 is measured using biotinylated-4G8 (Signet) as a capture antibody and Fab40 (an in-house antibody specific to the C-terminal of Abeta40) as a detection antibody. For example, 4 hours after administration of 30 mg/kg oral dose of the test compound in 2% hydroxypropyl methylcellulose, 1% Tween80 (pH2.2) to 200 g male Sprague Dawley rats, amyloid beta peptide levels are measured for reduction by X % and Y % in cerebrospinal fluid and brain, respectively, when compared to the levels measured in the vehicle-treated or control […].
Actual vehicles used: Oral: 2% HPMC, 1% Tween80, pH 2.2
• IV: 5% EtOH, 45% Propylene Glycol in 5% Dextrose
The compounds of the invention may be shown to reduce the formation and/or deposition of amyloid beta peptide in the cerebrospinal fluid (CSF) as well as in the brain of a mouse or rat at either 3 mpk, 10 mpk or 30 mpk (mpk=mg compound per kg weight of the animal) dosing concentrations after 4 hrs.

[6] = average IC50, in vitro enzymatic BACE FRET assay
[7] = average IC50, HEK cell assay, Aβ 40 readout
[8] = Cathepsin D FRET assay, read-out: CatD IC50
[9] = Abeta 40 in CSF of the rat, read-out: % reduction of rat CSF levels at 10 pmk
[10] = Abeta 40 in brain of the rat, read-out: % reduction of rat brain levels at 10 mpk
[11] = text summary referring to data in Table 2

Beta Secretase enzyme (BACE), sequence (P56817 46-501): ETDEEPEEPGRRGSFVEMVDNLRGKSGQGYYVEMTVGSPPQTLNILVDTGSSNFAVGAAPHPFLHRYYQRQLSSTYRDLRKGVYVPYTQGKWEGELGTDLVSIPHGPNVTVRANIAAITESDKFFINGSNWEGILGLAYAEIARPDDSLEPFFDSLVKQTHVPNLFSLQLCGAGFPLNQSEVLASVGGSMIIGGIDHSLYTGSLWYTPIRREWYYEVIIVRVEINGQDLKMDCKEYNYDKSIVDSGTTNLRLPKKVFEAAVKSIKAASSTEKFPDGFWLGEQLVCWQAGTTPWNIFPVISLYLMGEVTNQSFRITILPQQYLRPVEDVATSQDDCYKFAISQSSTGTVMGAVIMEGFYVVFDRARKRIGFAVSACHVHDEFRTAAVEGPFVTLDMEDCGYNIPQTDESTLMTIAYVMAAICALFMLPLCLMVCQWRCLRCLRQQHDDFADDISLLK
Cathepsin D (Cat D), sequence (P07339 65-412, species assumed): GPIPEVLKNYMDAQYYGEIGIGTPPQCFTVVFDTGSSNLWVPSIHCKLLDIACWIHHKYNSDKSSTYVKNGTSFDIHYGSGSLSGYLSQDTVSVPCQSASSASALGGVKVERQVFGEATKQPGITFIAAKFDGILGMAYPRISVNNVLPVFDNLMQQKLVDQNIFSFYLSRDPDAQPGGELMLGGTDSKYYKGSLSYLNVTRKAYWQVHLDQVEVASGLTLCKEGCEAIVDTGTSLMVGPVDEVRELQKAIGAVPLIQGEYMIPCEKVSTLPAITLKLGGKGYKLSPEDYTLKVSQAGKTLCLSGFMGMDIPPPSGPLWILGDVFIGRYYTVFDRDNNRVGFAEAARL

SMILES | toxicology finding in the eye [1] | IC50 [2, 6] | IC50 [3, 7] | IC50 [4, 8] | inhibition in vivo at 10 mg/kg [5, 9] | inhibition in vivo at 10 mg/kg [5, 10] | IC50 [4, 11] | IC50 ([2]; average IC50) | IC50 ([3]; HEK cell, average IC50) | IC50 ([4]; read-out: CatD IC50)
C[C@@]1(c2cc(-c3cncnc3)c(F)cc2F)CCSC(N)=N1 [LY 2811376] | damaged the pigment epithelium of the rat's eye |  |  |  |  |  |  |  |  | 
CC1(C)C[C@@H]2[C@](C)(N=C(N)C(C)(C)S2(=O)=O)c2cc(NC(=O)c3ncc(C(F)(F)F)cc3Cl)ccc2O1 [Example 127, N-((4aR,11bR)-2-amino-3,3,6,6,11b-pentamethyl-4,4-dioxido-4a,5,6,11b-tetrahydro-3H-[1]benzoxepino[4,5-b][1,4]thiazin-10-yl)-3-chloro-5-(trifluoromethyl)-2-pyridinecarboxamide] |  | 0.019 µM | 0.007 µM | 1020 µM | 37% | 15% |  |  |  | 
C#CCOc1cnc2c(Nc3ccc4c(c3)[C@@]3(C)N=C(N)C(C)(C)S(=O)(=O)[C@@H]3C[C@H](C)O4)nccc2n1 [Example 140, (4aR,6S,11bR)-3,3,6,11b-tetramethyl-N^~10^~-(2-(2-propyn-1-yloxy)pyrido[3,4-b]pyrazin-5-yl)-4a,5,6,11b-tetrahydro-3H-[1]benzoxepino[4,5-b][1,4]thiazine-2,10-diamine 4,4-dioxide] |  | 0.002 µM | 0.002 µM | 610 µM | 71% | 72% |  |  |  | 
Cc1cc(C(F)(F)F)cnc1C(=O)Nc1ccc2c(c1)[C@@]1(CF)N=C(N)C(C)(C)S(=O)(=O)[C@@H]1C[C@H](C)O2 [Example 104, N-((4aR,6S,11bS)-2-amino-11b-(fluoromethyl)-3,3,6-trimethyl-4,4-dioxido-4a,5,6,11b-tetrahydro-3H-[1]benzoxepino[4,5-b][1,4]thiazin-10-yl)-3-methyl-5-(trifluoromethyl)-2-pyridinecarboxamide] |  | 0.014 µM | 0.037 µM | > 400 µM | 36% | 11% |  |  |  | 
C[C@H]1C[C@@H]2[C@](C)(N=C(N)C(C)(C)S2(=O)=O)c2cc(NC(=O)c3ccc(C#N)cn3)ccc2O1 [Example 86, N-((4aR,6S,11bR)-2-amino-3,3,6,11b-tetramethyl-4,4-dioxido-4a,5,6,11b-tetrahydro-3H-[1]benzoxepino[4,5-b][1,4]thiazin-10-yl)-5-cyano-2-pyridinecarboxamide] |  | 0.003 µM | 0.002 µM | 1140 µM | 79% | 79% | > 1200 µM |  |  | 
Cc1cc(C(F)(F)F)cnc1C(=O)Nc1ccc2c(c1)[C@@]1(C)N=C(N)C(C)(C)S(=O)(=O)[C@@H]1C[C@H](C)O2 [Example 54, N-((4aR,6S,11bR)-2-amino-3,3,6,11b-tetramethyl-4,4-dioxido-4a,5,6,11b-tetrahydro-3H-[1]benzoxepino[4,5-b][1,4]thiazin-10-yl)-3-methyl-5-(trifluoromethyl)-2-pyridinecarboxamide] |  |  |  |  | 76% | 63% | > 1200 µM | 0.006 µM | 0.001 µM | 1620 µM
